Reference: ChEMBL document CHEMBL5678816, “A Next-Generation TRK Kinase Inhibitor Overcomes Acquired Resistance to Prior TRK Kinase Inhibition in Patients with TRK Fusion-Positive Solid Tumors” (Cancer Discov, 2017)
The source made the active and inactive calls. No cut-off for these calls is given here.

Key:
[1] = Toxicity in nu/nu NCr mouse implanted with mouse NIH3T3 cells harboring extracellular domain deleted TRKA G595R mutant assessed as body weight loss at 30 to 300 mg/kg, po administered twice daily for 12 days relative to control; format: organism-based; conditions: in vivo, 288 h, dose 30-300 mg/kg, time 12 day
[2] = molecular target: Tyrosine-protein kinase Fgr (Homo sapiens) (UniProt P09769); test: Inhibition of Fgr (unknown origin) at 1 uM in presence of ATP relative to control; values are per cent of control
[3] = molecular target: Platelet-derived growth factor receptor alpha (Homo sapiens) (UniProt P16234); test: Inhibition of PDGFRalpha (unknown origin) at 1 uM in presence of ATP relative to control; values are per cent of control
[4] = molecular target: Serine/threonine-protein kinase Sgk3 (Homo sapiens) (UniProt Q96BR1); test: Inhibition of SGK3 (unknown origin) at 1 uM in presence of ATP relative to control; values are per cent of control
TAK1/TAB1 (Homo sapiens) = TAK1/TAB1 (Homo sapiens) (UniProt Q15750+O43318); test: Inhibition of TAK1-TAB1 (unknown origin) at 1 uM in presence of ATP relative to control; values are per cent of control
RT112/84 = test: Inhibition of cell proliferation in human RT112/84 cells upto 10 umol/L incubated for 72 hrs by DAPI staining based analysis; format: functional; conditions: dose <= 10.0 µmol/L
[5] = molecular target: Insulin receptor (Homo sapiens) (UniProt P06213); test: Inhibition of IR (unknown origin) at 1 uM in presence of ATP relative to control; values are per cent of control
[6] = Toxicity in nu/nu NCr mouse xenografted with human KM12 cells harboring TPM3-TRKA fusion protein assessed as body weight loss at 30 to 300 mg/kg, po administered twice daily for 11 days relative to control; format: organism-based; conditions: in vivo, 264 h, dose 30-300 mg/kg, time 11 day
[7] = molecular target: Ephrin type-A receptor 7 (Homo sapiens) (UniProt Q15375); test: Inhibition of EphA7 (unknown origin) at 1 uM in presence of ATP relative to control; values are per cent of control
Chain of Ephrin type-A receptor 7 (Homo sapiens) (Q15375 28-998 limits assumed): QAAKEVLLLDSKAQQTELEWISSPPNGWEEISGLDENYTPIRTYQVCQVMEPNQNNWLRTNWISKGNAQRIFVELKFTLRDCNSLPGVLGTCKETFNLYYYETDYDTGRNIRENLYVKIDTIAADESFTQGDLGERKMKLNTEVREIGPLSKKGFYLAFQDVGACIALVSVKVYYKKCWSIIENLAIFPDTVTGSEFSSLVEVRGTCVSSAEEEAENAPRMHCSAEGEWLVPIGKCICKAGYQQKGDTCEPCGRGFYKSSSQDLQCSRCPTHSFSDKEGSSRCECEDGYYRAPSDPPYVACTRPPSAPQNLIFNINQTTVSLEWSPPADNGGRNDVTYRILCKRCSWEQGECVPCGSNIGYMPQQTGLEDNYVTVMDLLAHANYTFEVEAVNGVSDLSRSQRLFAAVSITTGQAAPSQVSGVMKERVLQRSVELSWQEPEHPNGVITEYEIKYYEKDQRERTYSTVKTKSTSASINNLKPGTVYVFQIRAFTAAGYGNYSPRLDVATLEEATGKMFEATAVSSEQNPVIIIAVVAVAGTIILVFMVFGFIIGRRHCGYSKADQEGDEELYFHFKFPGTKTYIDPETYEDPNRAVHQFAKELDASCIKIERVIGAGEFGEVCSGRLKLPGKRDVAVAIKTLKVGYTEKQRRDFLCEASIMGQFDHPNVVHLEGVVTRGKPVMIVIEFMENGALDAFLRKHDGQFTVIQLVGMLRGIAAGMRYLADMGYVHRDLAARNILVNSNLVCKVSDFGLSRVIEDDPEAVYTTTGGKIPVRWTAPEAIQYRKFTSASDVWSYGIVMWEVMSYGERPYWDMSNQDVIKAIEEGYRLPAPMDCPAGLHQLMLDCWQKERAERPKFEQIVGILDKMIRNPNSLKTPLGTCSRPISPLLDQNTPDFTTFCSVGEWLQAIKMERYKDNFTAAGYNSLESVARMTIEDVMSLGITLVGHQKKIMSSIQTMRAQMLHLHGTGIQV

[8] = molecular target: Serine/threonine-protein kinase ULK2 (Homo sapiens) (UniProt Q8IYT8); test: Inhibition of ULK2 (unknown origin) at 1 uM in presence of ATP relative to control; values are per cent of control
[9] = molecular target: Ribosomal protein S6 kinase alpha-5 (Homo sapiens) (UniProt O75582); test: Inhibition of MSK1 (unknown origin) at 1 uM in presence of ATP relative to control; values are per cent of control
BHT-101 = test: Inhibition of cell proliferation in human BHT-101 cells upto 10 umol/L incubated for 72 hrs by DAPI staining based analysis; format: functional; conditions: dose <= 10.0 µmol/L
DBTRG-05MG = test: Inhibition of cell proliferation in human DBTRG-05MG cells upto 10 umol/L incubated for 72 hrs by DAPI staining based analysis; format: functional; conditions: dose <= 10.0 µmol/L
[10] = molecular target: Serine/threonine-protein kinase SIK1 (Homo sapiens) (UniProt P57059); test: Inhibition of SIK (unknown origin) at 1 uM in presence of ATP relative to control; values are per cent of control
Chain of Serine/threonine-protein kinase SIK1 (Homo sapiens) (P57059 whole entry): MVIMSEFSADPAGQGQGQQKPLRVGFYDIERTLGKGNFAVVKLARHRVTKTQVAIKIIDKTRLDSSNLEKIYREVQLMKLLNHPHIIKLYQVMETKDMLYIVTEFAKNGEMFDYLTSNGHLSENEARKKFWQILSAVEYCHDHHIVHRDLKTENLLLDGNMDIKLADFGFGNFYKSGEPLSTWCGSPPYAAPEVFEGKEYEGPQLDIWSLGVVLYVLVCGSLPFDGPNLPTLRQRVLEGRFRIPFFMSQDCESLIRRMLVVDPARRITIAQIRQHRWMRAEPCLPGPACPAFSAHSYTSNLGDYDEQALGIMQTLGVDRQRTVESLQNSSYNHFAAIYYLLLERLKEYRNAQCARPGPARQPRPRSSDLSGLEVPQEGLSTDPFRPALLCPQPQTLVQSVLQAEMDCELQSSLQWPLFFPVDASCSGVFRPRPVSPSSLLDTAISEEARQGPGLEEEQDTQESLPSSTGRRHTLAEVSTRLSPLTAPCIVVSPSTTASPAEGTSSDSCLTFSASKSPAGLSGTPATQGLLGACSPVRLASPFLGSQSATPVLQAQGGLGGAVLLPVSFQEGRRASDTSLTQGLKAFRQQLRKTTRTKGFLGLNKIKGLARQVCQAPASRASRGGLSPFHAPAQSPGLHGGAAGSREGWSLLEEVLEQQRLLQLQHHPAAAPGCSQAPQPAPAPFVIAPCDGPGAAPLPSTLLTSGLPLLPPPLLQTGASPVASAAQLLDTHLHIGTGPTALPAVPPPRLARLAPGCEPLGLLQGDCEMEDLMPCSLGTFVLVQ

[11] = molecular target: Serine/threonine-protein kinase 10 (Homo sapiens) (UniProt O94804); test: Inhibition of LOK (unknown origin) at 1 uM in presence of ATP relative to control; values are per cent of control
Chain of Serine/threonine-protein kinase 10 (Homo sapiens) (O94804 whole entry, looked up, canonical isoform): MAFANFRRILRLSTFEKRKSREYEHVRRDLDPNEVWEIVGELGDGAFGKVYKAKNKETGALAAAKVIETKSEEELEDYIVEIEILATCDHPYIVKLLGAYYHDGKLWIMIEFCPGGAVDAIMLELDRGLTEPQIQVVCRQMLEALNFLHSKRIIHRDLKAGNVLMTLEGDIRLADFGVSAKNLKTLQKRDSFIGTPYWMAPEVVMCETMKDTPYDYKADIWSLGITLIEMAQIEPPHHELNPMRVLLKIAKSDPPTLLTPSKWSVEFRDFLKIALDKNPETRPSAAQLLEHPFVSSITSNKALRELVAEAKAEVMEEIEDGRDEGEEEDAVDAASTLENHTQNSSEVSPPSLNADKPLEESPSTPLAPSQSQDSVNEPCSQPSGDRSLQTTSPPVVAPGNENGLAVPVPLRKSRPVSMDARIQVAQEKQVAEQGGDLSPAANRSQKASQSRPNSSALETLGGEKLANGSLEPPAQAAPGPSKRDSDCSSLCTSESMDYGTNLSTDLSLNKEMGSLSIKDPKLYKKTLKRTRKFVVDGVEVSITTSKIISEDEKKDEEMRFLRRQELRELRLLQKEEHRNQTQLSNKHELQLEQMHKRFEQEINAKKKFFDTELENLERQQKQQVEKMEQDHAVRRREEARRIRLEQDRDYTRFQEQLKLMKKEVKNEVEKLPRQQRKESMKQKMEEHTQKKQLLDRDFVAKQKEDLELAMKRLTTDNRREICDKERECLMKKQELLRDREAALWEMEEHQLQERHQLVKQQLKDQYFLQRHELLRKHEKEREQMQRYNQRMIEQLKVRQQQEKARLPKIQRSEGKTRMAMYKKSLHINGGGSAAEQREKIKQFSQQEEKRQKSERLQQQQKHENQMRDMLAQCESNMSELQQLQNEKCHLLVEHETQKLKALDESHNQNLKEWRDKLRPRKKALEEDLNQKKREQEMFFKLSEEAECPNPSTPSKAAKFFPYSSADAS

[12] = molecular target: Casein kinase I isoform gamma-3 (Homo sapiens) (UniProt Q9Y6M4); test: Inhibition of CK1gamma3 (unknown origin) at 1 uM in presence of ATP relative to control; values are per cent of control
KG-1 = test: Inhibition of cell proliferation in human KG-1 cells upto 10 umol/L incubated for 72 hrs by DAPI staining based analysis; format: functional; conditions: dose <= 10.0 µmol/L
[13] = Cmin in adult patient with recurrent LMNA-NTRK1 rearranged colorectal cancer at 100 mg administered twice a day as powder-in-capsule or liquid formulation for 22 day and measured 10 hrs post dose by LC-MS/MS analysis; format: ADME; conditions: human, in vivo, po, read-out: Cmin
EFM-19 = test: Inhibition of cell proliferation in human EFM-19 cells upto 10 umol/L incubated for 72 hrs by DAPI staining based analysis; format: functional; conditions: dose <= 10.0 µmol/L
NIH3T3 = test: Antitumor activity against mouse NIH3T3 cells harboring extracellular domain deleted TRKA implanted in nu/nu NCr mouse assessed as inhibition of tumor growth at 30 to 300 mg/kg, po administered twice daily for 10 days; format: functional, organism-based; conditions: dose 30-300 mg/kg, time 10.0 day
SK-LMS-1 = test: Inhibition of cell proliferation in human SK-LMS-1 cells upto 10 umol/L incubated for 72 hrs by DAPI staining based analysis; format: functional; conditions: dose <= 10.0 µmol/L
[14] = molecular target: Epidermal growth factor receptor (Homo sapiens) (UniProt P00533); test: Inhibition of EGFR (unknown origin) at 1 uM in presence of ATP relative to control; values are per cent of control
[15] = molecular target: Dual specificity protein kinase CLK3 (Homo sapiens) (UniProt P49761); test: Inhibition of CLK3 (unknown origin) at 1 uM in presence of ATP relative to control; values are per cent of control
Chain of Dual specificity protein kinase CLK3 (Homo sapiens) (P49761 whole entry, looked up): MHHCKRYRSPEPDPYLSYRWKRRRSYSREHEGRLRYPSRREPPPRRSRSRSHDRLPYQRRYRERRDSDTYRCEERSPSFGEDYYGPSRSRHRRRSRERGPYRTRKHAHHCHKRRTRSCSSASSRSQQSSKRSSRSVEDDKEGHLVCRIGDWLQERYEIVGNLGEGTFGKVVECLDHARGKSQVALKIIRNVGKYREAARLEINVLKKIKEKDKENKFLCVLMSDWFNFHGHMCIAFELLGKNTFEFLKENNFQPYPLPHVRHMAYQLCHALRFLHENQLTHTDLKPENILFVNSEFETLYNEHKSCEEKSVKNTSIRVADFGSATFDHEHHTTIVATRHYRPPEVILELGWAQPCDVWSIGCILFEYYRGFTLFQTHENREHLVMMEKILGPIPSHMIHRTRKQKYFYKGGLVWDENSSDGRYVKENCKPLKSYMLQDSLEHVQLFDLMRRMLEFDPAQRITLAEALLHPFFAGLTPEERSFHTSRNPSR

[16] = molecular target: Serine/threonine-protein kinase TBK1 (Homo sapiens) (UniProt Q9UHD2); test: Inhibition of TBK1 (unknown origin) at 1 uM in presence of ATP relative to control; values are per cent of control
Chain of Serine/threonine-protein kinase TBK1 (Homo sapiens) (Q9UHD2 whole entry): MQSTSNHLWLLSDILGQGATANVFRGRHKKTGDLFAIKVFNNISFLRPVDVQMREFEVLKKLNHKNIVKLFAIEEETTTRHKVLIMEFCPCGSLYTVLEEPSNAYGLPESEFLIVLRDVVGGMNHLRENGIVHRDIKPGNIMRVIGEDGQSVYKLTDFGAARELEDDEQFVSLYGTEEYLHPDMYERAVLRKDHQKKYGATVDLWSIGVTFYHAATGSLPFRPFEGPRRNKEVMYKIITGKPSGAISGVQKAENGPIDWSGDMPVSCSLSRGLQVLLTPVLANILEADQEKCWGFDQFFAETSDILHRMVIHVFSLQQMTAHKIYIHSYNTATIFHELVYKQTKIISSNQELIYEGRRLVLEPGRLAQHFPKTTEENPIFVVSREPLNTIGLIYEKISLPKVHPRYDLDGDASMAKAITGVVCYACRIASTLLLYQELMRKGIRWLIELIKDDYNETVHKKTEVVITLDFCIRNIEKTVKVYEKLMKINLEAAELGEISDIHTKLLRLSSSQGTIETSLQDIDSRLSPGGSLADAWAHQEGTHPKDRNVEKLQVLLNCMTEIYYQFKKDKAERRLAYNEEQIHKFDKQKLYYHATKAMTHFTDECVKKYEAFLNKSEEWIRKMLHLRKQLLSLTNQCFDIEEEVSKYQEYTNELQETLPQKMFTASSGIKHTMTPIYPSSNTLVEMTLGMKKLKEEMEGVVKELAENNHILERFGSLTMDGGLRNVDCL

MDA-MB-468 = test: Inhibition of cell proliferation in human MDA-MB-468 cells upto 10 umol/L incubated for 72 hrs by DAPI staining based analysis; format: functional; conditions: dose <= 10.0 µmol/L
[17] = molecular target: Ephrin type-B receptor 3 (Homo sapiens) (UniProt P54753); test: Inhibition of EphB3 (unknown origin) at 1 uM in presence of ATP relative to control; values are per cent of control
[18] = molecular target: Serine/threonine-protein kinase Nek11 (Homo sapiens) (UniProt Q8NG66); test: Inhibition of NEK11 (unknown origin) at 1 uM in presence of ATP relative to control; values are per cent of control
Chain of Serine/threonine-protein kinase Nek11 (Homo sapiens) (Q8NG66 whole entry): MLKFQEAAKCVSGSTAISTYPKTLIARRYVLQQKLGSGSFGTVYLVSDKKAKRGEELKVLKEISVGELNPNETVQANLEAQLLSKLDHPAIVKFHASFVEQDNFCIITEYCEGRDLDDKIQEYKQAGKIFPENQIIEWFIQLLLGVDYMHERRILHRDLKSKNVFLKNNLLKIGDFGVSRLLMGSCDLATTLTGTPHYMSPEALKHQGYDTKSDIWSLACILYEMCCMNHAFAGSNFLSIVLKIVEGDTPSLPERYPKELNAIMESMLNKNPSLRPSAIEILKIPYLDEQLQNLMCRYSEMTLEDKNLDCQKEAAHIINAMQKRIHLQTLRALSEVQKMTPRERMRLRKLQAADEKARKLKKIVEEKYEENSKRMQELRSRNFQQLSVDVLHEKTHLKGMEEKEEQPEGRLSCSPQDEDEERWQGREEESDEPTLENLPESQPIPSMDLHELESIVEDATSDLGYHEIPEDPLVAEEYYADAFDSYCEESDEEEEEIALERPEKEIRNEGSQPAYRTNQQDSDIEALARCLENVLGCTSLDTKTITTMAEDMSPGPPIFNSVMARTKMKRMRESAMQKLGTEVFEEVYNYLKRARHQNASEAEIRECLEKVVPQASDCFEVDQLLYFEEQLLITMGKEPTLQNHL

[19] = molecular target: Mitogen-activated protein kinase 12 (Homo sapiens) (UniProt P53778); test: Inhibition of p38gamma (unknown origin) at 1 uM in presence of ATP relative to control; values are per cent of control
Chain of Mitogen-activated protein kinase 12 (Homo sapiens) (P53778 whole entry): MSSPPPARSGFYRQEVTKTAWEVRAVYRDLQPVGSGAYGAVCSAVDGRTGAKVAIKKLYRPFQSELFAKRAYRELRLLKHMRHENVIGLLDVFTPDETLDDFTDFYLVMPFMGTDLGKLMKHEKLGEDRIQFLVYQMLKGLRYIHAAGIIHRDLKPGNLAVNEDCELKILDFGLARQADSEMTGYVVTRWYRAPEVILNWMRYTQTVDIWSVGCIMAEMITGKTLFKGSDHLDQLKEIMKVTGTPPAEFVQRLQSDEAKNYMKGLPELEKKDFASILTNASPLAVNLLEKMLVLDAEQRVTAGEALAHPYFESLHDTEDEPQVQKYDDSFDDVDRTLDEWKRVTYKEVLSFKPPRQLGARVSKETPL

HEL 92.1.7 = test: Inhibition of cell proliferation in human HEL 92.1.7 cells upto 10 umol/L incubated for 72 hrs by DAPI staining based analysis; format: functional; conditions: dose <= 10.0 µmol/L

With `C[C@@H]1CCc2ncc(F)cc2[C@H]2CCCN2c2ccn3ncc(c3n2)C(=O)N1` [SELITRECTINIB] the Activity [1] was < 5%, the residual activity [2] was 96% and the residual activity [3] was 104%. For the same compound, the residual activity [4] was 114%, the residual activity (TAK1/TAB1 (Homo sapiens)) was 100% and the inhibition (RT112/84) was “inactive”. For the same compound, the residual activity [5] was 92%, the Activity [6] was < 5% and the residual activity [7] was 103%. For the same compound, the residual activity [8] was 96%, the residual activity [9] was 131% and the inhibition (BHT-101) was “inactive”. For the same compound, the inhibition (DBTRG-05MG) was “inactive”, the residual activity [10] was 107% and the residual activity [11] was 99.5%. The residual activity [12] was 113%, the inhibition (KG-1) was “inactive” and the concentration at 538 h [13] was 14.7 ng/mL. For the same compound, the inhibition (EFM-19) was “inactive”, the Activity (NIH3T3) was “Active” and the inhibition (SK-LMS-1) was “inactive”. It also gave a residual activity [14] of 103%, a residual activity [15] of 104% and a residual activity [16] of 111%. The inhibition (MDA-MB-468) was “inactive”, the residual activity [17] was 101% and the residual activity [18] was 112%. The residual activity [19] was 104% and the inhibition (HEL 92.1.7) was “inactive”.
